Measurements: article PMC11578424, “Discovery of novel 2,4-diarylaminopyrimidine hydrazone derivatives as potent anti-thyroid cancer agents capable of inhibiting FAK” (Journal of Enzyme Inhibition and Medicinal Chemistry, 2024)
Read-outs that look alike come from different tables or passages of the source.

Legend:
[1] = test system: thyroid cancer cells TPC-1; test: MTT antiproliferative assay; assay type: cell-based; conditions: MTT assay, 48 h, average with SD (n = 3, duplicate), read-out: IC50 (μM), antiproliferative activity against thyroid cancer cells TPC-1
Protocol: Thyroid cancer cells TCP-1 were provided by Wuhan Servicebio Co., Ltd. TCP-1 cells are cultured in RPMI-1640 medium supplemented with 10% foetal bovine serum (FBS), 100 U/mL penicillin, and 0.1 mg/mL streptomycin. All cells are maintained in a humidified incubator at 37 °C with 5% CO2.
The TCP-1 cell line is seeded into a 96-well plate and incubated under conditions of 37 °C and 5% CO2. After the cells adhere, different concentrations of compounds are added and the incubation continues for 48 h under the same conditions. Subsequently, MTT reagent is added to the medium and the incubation is continued for an additional 4 h at 37 °C. After the incubation, the medium is aspirated, and 150 μL of DMSO solution is added to dissolve the purple-blue crystals by shaking. The absorbance of the solution is measured at a wavelength of 490 nm. The IC50 value of the compounds is calculated using SPSS software version 20.0.

MCF7 cells = conditions: cited from earlier work

| Structure (SMILES) | melting point [°C] | IC50 ([1]; Homo sapiens, TPC1, 48 h) [µM] | IC50 (MCF7 cells; read-out: IC50, proliferative activity of MCF7 cells) [nM] | IC50 (MCF7 cells; read-out: IC50, antiproliferative activity against MCF7 cells) [nM] | IC50 [1] [µM] |
| --- | --- | --- | --- | --- | --- |
| CNC(=O)c1ccccc1Nc1nc(N/N=C/c2ccc(C#N)cc2)ncc1Cl [14j, (E)-2-((5-chloro-2–(2-(4-cyanobenzylidene)hydrazineyl)pyrimidin-4-yl)amino)-N-methylbenzamide] | 200.7 to 202.1 | 0.126 ± 0.011 | – | – | – |
| CNC(=O)c1ccccc1Nc1nc(N/N=C/c2ccc(Br)cc2)ncc1Cl [14h, (E)-2-((2–(2-(4-bromobenzylidene)hydrazineyl)-5-chloropyrimidin-4-yl)amino)-N-methylbenzamide] | 192.1 to 193.2 | 0.59 ± 0.024 | – | – | – |
| CNC(=O)c1ccccc1Nc1nc(N/N=C/c2cn(C)c3ccccc23)ncc1Cl [14 y] | 217.2 to 219.1 | 0.425 ± 0.023 | – | – | – |
| Cn1c2nc(N/N=C/c3cccc(Br)c3)nc(=O)c-2cc2ccccc21 [compound 9] | – | – | 0.1 | – | – |
| CNC(=O)c1ccccc1Nc1nc(N/N=C/c2ccc([N+](=O)[O-])cc2)ncc1Cl [14i, (E)-2-((5-chloro-2–(2-(4-nitrobenzylidene)hydrazineyl)pyrimidin-4-yl)amino)-N-methylbenzamide] | 201.7 to 202.8 | 0.157 ± 0.008 | – | – | – |
| CNC(=O)c1ccccc1Nc1nc(N/N=C/c2ccc(OC)cc2OC)ncc1Cl [14n, (E)-2-((5-chloro-2–(2-(2,4-dimethoxybenzylidene)hydrazineyl)pyrimidin-4-yl)amino)-N-methylbenzamide] | 213.1 to 214.7 | – | – | – | – |
| CNC(=O)c1ccccc1Nc1nc(Nc2ccc(N3CCOCC3)cc2OC)ncc1Cl [TAE-226, reference compound] | – | 1.08 ± 0.023 | – | – | – |
| CNC(=O)c1ccccc1Nc1nc(N/N=C/c2ccc3cc[nH]c3c2)ncc1Cl [14ab, (E)-2-((2–(2-((1H-indol-6-yl)methylene)hydrazineyl)-5-chloropyrimidin-4-yl)amino)-N-methylbenzamide] | 216.1 to 217.7 | 0.364 ± 0.015 | – | – | – |
| CNC(=O)c1ccccc1Nc1nc(N/N=C/c2c[nH]c3ccc(OC)cc23)ncc1Cl [14z, (E)-2-((5-chloro-2–(2-((5-methoxy-1H-indol-3-yl)methylene) hydrazineyl)pyrimidin-4-yl)amino)-N-methylbenzamide] | 217.1 to 218.2 | 0.624 ± 0.044 | – | – | – |
| CNC(=O)c1ccccc1Nc1nc(N/N=C/c2ccc(F)cc2F)ncc1Cl [14r, (E)-2-((5-chloro-2–(2-(2,4-difluorobenzylidene)hydrazineyl)pyrimidin-4-yl)amino)-N-methylbenzamide] | 243.2 to 245.1 | 0.122 ± 0.032 | – | – | – |
| CNC(=O)c1ccccc1Nc1nc(N/N=C/c2cccc(OC)c2)ncc1Cl [14k, (E)-2-((5-chloro-2–(2-(3-methoxybenzylidene)hydrazineyl)pyrimidin-4-yl)amino)-N-methylbenzamide] | 199.3 to 200.4 | 0.517 ± 0.031 | – | – | – |
| CNC(=O)c1ccccc1Nc1nc(N/N=C/c2ccc(OC)c(OC)c2)ncc1Cl [14o, (E)-2-((5-chloro-2–(2-(3,4-dimethoxybenzylidene)hydrazineyl)pyrimidin-4-yl)amino)-N-methylbenzamide] | 214.1 to 215.2 | 0.434 ± 0.012 | – | – | – |
| CNC(=O)c1ccccc1Nc1nc(N/N=C(\C)c2ccc(OC)cc2)ncc1Cl [14ac, (E)-2-((5-chloro-2–(2-(1–(4-methoxyphenyl)ethylidene)hydrazineyl)pyrimidin-4-yl)amino)-N-methylbenzamide] | 216.7 to 217.1 | 0.612 ± 0.016 | – | – | – |
| CNC(=O)c1ccccc1Nc1nc(N/N=C/c2ccc(C)cc2)ncc1Cl [14b, (E)-2-((5-chloro-2–(2-(4-methylbenzylidene)hydrazineyl)pyrimidin-4-yl)amino)-N-methylbenzamide] | 207.1 to 208.1 | 0.296 ± 0.021 | – | – | – |
| CNC(=O)c1ccccc1Nc1nc(N/N=C/c2ccncc2)ncc1Cl [14 u, (E)-2-((5-chloro-2–(2-(pyridin-4-ylmethylene)hydrazineyl)pyrimidin-4-yl)amino)-N-methylbenzamide] | 215.1 to 216.8 | 0.189 ± 0.005 | – | – | – |
| C/C(=N\N=c1/[nH]c2cc(F)c(F)cc2n1C)c1ncccn1 [compound 8] | – | – | – | 3.3 | – |

| Structure (SMILES) | melting point [°C] | IC50 ([1]; Homo sapiens, TPC1, 48 h) [µM] | IC50 (MCF7 cells; read-out: IC50, proliferative activity of MCF7 cells) [nM] | IC50 (MCF7 cells; read-out: IC50, antiproliferative activity against MCF7 cells) [nM] | IC50 [1] [µM] |
| --- | --- | --- | --- | --- | --- |
| CNC(=O)c1ccccc1Nc1nc(N/N=C/c2c[nH]c3ccccc23)ncc1Cl [14x, (E)-2-((2–(2-((1H-indol-3-yl)methylene)hydrazineyl)-5-chloropyrimidin-4-yl)amino)-N-methylbenzamide] | 203.3 to 204.8 | 0.357 ± 0.01 | – | – | – |
| CNC(=O)c1ccccc1Nc1nc(N/N=C/c2ccc3[nH]ccc3c2)ncc1Cl [14aa, (E)-2-((2–(2-((1H-indol-5-yl)methylene)hydrazineyl)-5-chloropyrimidin-4-yl)amino)-N-methylbenzamide] | 218.1 to 219.9 | 0.331 ± 0.012 | – | – | – |
| CNC(=O)c1ccccc1Nc1nc(N/N=C/c2ccc(O)cc2)ncc1Cl [14d, (E)-2-((5-chloro-2–(2-(4-hydroxybenzylidene)hydrazineyl)pyrimidin-4-yl)amino)-N-methylbenzamide] | 187.8 to 189.2 | 0.255 ± 0.025 | – | – | – |
| CNC(=O)c1ccccc1Nc1nc(N/N=C/c2cccc(C(F)(F)F)c2)ncc1Cl [14 m, (E)-2-((5-chloro-2–(2-(3-(trifluoromethyl)benzylidene)hydrazineyl)pyrimidin-4-yl)amino)-N-methylbenzamide] | 207.1 to 209.8 | 0.693 ± 0.017 | – | – | – |
| CNC(=O)c1ccccc1Nc1nc(N/N=C/c2ccc(OC)c(F)c2)ncc1Cl [14q, (E)-2-((5-chloro-2–(2-(3-fluoro-4-methoxybenzylidene)hydrazineyl)pyrimidin-4-yl)amino)-N-methylbenzamide] | 234.1 to 235.7 | 0.386 ± 0.047 | – | – | – |
| CNC(=O)c1ccccc1Nc1nc(N/N=C/c2ccccn2)ncc1Cl [14s, (E)-2-((5-chloro-2–(2-(pyridin-2-ylmethylene)hydrazineyl)pyrimidin-4-yl)amino)-N-methylbenzamide] | 217.1 to 218.2 | 0.272 ± 0.016 | – | – | – |
| CNC(=O)c1ccccc1Nc1nc(N/N=C/c2cccc(F)c2)ncc1Cl [14 l, (E)-2-((5-chloro-2–(2-(3-fluorobenzylidene)hydrazineyl)pyrimidin-4-yl)amino)-N-methylbenzamide] | 203.3 to 205.1 | 0.428 ± 0.009 | – | – | – |
| CNC(=O)c1ccccc1Nc1nc(N/N=C/c2ccc3cccnc3c2)ncc1Cl [14w, (E)-2-((5-chloro-2–(2-(quinolin-7-ylmethylene)hydrazineyl)pyrimidin-4-yl)amino)-N-methylbenzamide] | 241.7 to 242.1 | 0.413 ± 0.015 | – | – | – |
| CNC(=O)c1ccccc1Nc1nc(N/N=C/c2cccnc2)ncc1Cl [14t, (E)-2-((5-chloro-2–(2-(pyridin-3-ylmethylene)hydrazineyl)pyrimidin-4-yl)amino)-N-methylbenzamide] | 217.1 to 218.1 | 0.243 ± 0.001 | – | – | – |
| CNC(=O)c1ccccc1Nc1nc(N/N=C/c2ccccc2)ncc1Cl [14a, (E)-2-((2–(2-benzylidenehydrazineyl)-5-chloropyrimidin-4-yl)amino)-N-methylbenzamide] | 199.1 to 202.1 | 0.306 | – | – | 0.246 ± 0.038 |
| CNC(=O)c1ccccc1Nc1nc(N/N=C/c2ccc(Cl)cc2)ncc1Cl [14 g, (E)-2-((5-chloro-2–(2-(4-chlorobenzylidene)hydrazineyl)pyrimidin-4-yl)amino)-N-methylbenzamide] | 194.1 to 195.8 | 0.409 ± 0.093 | – | – | – |
| CNC(=O)c1ccccc1Nc1nc(N/N=C/c2ccc(OC)cc2)ncc1Cl [14c, (E)-2-((5-chloro-2–(2-(4-methoxybenzylidene)hydrazineyl)pyrimidin-4-yl)amino)-N-methylbenzamide] | 187.7 to 188.9 | 0.257 ± 0.004 | – | – | – |
| CNC(=O)c1ccccc1Nc1nc(N/N=C(\C)c2ccc(F)cc2)ncc1Cl [14ad, (E)-2-((5-chloro-2–(2-(1–(4-fluorophenyl)ethylidene)hydrazineyl)pyrimidin-4-yl)amino)-N-methylbenzamide] | 222.6 to 223.8 | 1.46 ± 0.066 | – | – | – |
| CNC(=O)c1ccccc1Nc1nc(N/N=C/c2ccc(C(F)(F)F)cc2)ncc1Cl [14e, (E)-2-((5-chloro-2–(2-(4-(trifluoromethyl)benzylidene)hydrazineyl)pyrimidin-4-yl)amino)-N-methylbenzamide] | 206.6 to 208.8 | 0.193 ± 0.029 | – | – | – |
| CNC(=O)c1ccccc1Nc1nc(N/N=C/c2cccs2)ncc1Cl [14v, (E)-2-((5-chloro-2–(2-(thiophen-2-ylmethylene)hydrazineyl)pyrimidin-4-yl)amino)-N-methylbenzamide] | 214.6 to 216.1 | 0.153 ± 0.005 | – | – | – |
| CNC(=O)c1ccccc1Nc1nc(N/N=C/c2ccc(OC)cc2F)ncc1Cl [14p, (E)-2-((5-chloro-2–(2-(2-fluoro-4-methoxybenzylidene)hydrazineyl)pyrimidin-4-yl)amino)-N-methylbenzamide] | 218.1 to 219.4 | 0.228 ± 0.065 | – | – | – |
